According to article PMC7176092, “Development of the first in vivo GPR17 ligand through an iterative drug discovery pipeline: A novel disease-modifying strategy for multiple sclerosis” (PLoS ONE, 2020):
Marks after values point to notes of the source that are not given here.

How the values were obtained:
[1] = target: T1, CXCR2 (Homo sapiens, UniProt P25025); assay: Binding assay CXCR2; settings: reference compound
T1 construct: Eurofins Cerep (external service)
T1 sequence (P25025 1-360): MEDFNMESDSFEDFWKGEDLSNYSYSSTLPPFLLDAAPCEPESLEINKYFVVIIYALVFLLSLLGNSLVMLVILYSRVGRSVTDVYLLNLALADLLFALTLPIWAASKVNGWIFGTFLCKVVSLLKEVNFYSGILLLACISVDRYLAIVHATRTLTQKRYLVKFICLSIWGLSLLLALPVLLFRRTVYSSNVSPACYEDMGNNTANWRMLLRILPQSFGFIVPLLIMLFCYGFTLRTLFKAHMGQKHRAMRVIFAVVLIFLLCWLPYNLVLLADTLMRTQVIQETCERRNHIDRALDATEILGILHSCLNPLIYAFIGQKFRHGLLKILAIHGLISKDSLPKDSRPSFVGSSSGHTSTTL

[2] = target: T2, human GPR17 (Homo sapiens, UniProt Q13304); assay: [35S]GTPγS binding assay; assay type: biochemical; settings: for EC50: membranes of 1321N1 cells transfected with human GPR17, mean ± SEM of 3 experiments
T2 construct: HA; expressed in transfected cells
Description: [^35S]GTPγS binding assays were carried out as previously described. Briefly, control and astrocytoma 1321N1 cells stably transfected with human pcDNA3.1 (control cells) and human HA-tag GPR17 were homogenized in 5 mM Tris/HCl and 2 mM EDTA (pH 7.4) and centrifuged at 48,000g for 15 min at 4°C. The resulting pellets were washed in 50 mM Tris/HCl and 10 mM MgCl2 (pH 7.4). After protein dosage, aliquots of cell membranes were incubated with increasing concentrations of each investigated ligand (1 pM–10 μM) and GTPγS binding to activated G-proteins was quantified as previously described. Compounds were purchased from two external providers, i.e., Ambinter (Ambinter c/o Greenpharma, Orléans, France http://www.ambinter.com/) and Asinex (http://www.asinex.com/).
For analysis and graphic presentation of [^35S]GTPγS binding data, a nonlinear multipurpose curve fitting computer program (Graph-Pad Prism) was used. All data are presented as the mean ± SEM of three different experiments.
The selected 15 molecules were evaluated in our in-house [^35S]GTPγS functional assay in membranes from cells transfected with human GPR17. […] Moreover, this assay has been already successfully used in the past to measure the ability of both endogenous and novel synthetic compounds to activate GPR17 [25, 31]. All tested molecules were able to potently activate GPR17 with nanomolar/sub-nanomolar affinities. Concentration-response curves obtained for each selected compound are reported in S4 Fig.

[3] = target: T3, mGluR5 (Homo sapiens, UniProt P41594); assay: Binding assay mGluR5; settings: reference compound
T3 construct: Eurofins Cerep (external service)

[4] = target: T4, CCR2 (Homo sapiens, UniProt P41597); assay: Binding assay CCR2; settings: reference compound
T4 construct: Eurofins Cerep (external service)

[5] = standard LTD4 50 nM set to 100% († compounds)
[6] = standard LTC4 50 nM set to 100% (¶ compounds)

T2 sequence (Q13304 29-367): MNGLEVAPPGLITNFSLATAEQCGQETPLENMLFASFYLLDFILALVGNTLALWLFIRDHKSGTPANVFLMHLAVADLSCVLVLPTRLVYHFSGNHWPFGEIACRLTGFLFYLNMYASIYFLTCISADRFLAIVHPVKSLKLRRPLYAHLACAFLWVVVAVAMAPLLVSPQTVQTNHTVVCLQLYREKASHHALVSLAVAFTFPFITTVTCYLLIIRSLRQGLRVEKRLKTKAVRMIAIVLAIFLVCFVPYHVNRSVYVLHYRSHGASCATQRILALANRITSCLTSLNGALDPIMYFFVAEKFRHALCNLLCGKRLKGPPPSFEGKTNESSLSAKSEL
T4 sequence (P41597 whole entry): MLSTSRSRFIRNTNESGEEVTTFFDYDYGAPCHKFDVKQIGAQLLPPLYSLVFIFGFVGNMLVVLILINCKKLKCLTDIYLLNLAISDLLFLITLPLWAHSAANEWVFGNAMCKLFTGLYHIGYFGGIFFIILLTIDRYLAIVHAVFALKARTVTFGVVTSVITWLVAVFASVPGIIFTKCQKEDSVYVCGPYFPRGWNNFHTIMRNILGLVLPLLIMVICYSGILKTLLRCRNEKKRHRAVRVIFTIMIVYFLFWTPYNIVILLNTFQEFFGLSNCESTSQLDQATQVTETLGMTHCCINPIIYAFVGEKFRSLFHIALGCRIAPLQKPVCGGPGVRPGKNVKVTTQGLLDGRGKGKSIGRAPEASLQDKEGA
T3 sequence (P41594 21-1212): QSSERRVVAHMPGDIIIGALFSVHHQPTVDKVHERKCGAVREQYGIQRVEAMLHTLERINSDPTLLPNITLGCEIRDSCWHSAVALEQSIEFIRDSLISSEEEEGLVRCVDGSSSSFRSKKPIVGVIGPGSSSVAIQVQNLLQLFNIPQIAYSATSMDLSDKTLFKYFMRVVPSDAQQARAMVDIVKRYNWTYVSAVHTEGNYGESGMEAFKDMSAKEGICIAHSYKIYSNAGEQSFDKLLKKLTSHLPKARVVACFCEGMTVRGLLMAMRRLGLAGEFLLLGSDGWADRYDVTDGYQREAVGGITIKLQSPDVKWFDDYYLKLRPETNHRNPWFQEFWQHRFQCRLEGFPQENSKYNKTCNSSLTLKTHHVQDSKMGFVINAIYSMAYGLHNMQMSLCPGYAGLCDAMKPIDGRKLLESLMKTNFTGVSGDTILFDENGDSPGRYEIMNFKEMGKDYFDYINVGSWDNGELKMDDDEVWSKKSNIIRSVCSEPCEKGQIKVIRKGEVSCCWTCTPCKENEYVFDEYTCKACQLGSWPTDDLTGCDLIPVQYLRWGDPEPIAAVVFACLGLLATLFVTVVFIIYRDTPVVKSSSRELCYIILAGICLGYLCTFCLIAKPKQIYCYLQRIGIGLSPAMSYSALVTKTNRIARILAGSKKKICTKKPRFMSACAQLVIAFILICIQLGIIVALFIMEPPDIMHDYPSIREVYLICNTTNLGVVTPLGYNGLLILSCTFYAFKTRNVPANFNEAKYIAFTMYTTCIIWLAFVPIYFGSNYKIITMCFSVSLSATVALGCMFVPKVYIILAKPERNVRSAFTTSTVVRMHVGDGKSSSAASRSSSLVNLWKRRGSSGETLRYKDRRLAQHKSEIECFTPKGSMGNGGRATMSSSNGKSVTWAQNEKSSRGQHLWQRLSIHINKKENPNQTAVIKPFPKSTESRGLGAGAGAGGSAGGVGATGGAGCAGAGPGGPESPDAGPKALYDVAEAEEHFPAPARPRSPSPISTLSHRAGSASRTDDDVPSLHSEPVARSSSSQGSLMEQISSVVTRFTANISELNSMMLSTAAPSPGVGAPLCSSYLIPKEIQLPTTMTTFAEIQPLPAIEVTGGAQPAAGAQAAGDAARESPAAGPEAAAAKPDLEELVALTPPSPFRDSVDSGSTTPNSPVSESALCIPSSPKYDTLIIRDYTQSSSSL

| Compound | EC50 [2] | Emax (% vs basal) ([2]; mean ± SEM) | % Emax (ratio vs Emax of the standard) [2, 6] | other results |
| --- | --- | --- | --- | --- |
| IL-8: chemokine, reference compound for CXCR2 binding | – | – | – | IC50 [1]: 0.26 nM; Ki [1]: 0.12 nM |
| COc1ccc(-n2c(SCC(=O)Nc3cc(C(C)(C)C)no3)nnc2-c2ccccc2OC)cc1 [Compound 11] | 22.5 ± 4.3 nM | 134.3 ± 8.8% | 95.3% | – |
| N[C@@H](Cn1oc(=O)[nH]c1=O)C(=O)O [L-Quisqualate, reference compound] | – | – | – | IC50 [3]: 67 nM; Ki [3]: 14 nM |
| COc1ccccc1-c1nnc(SCC(=O)Nc2nccs2)[nH]1 [Compound 17] | 8.48 ± 0.9 nM | 136.2 ± 0.5% | 96.6% | – |
| MCP-1: chemokine, reference compound for CCR2 binding | – | – | – | IC50 [4]: 0.072 nM; Ki [4]: 0.029 nM |
| CCCCC/C=C\C\C=C/C=C/C=C/[C@@H](SC[C@H](N)C(=O)NCC(=O)O)[C@@H](O)CCCC(=O)O [LTD4, reference compound] | – | – | – | Emax (% vs basal) ([2]; reference agonist at 50 nM): 144.4 ± 7.1% |
| CCOc1ccc(-n2c(SCC(=O)Nc3ccc(Cl)c(C(F)(F)F)c3)nnc2-c2cccc(C)c2)cc1 [Compound 12] | 7.11 ± 1.96 nM | 127.7 ± 4.1% | 90.6 ^* % | – |
| O=C(CSc1nnc2n(Cc3ccc(Cl)cc3)c3ccccc3n12)N1CCc2ccccc2C1 [Compound 19] | 9.5 ± 1.47 nM | 153.7 ± 1.1% | 108.5 ^* % | – |
| CCOc1ccc(-n2c(SCC(=O)Nc3ccc4c(c3)OCCO4)nnc2-c2ccccc2Cl)cc1 [Compound 13] | 3.29 ± 0.28 nM | 141.3 ± 7.6% | 100.2% | – |
| CCCCC/C=C\C\C=C/C=C/C=C/[C@@H](SC[C@H](NC(=O)CC[C@H](N)C(=O)O)C(=O)NCC(=O)O)[C@@H](O)CCCC(=O)O [LTC4, reference compound] | – | – | – | Emax (% vs basal) ([2]; reference agonist at 50 nM): 141.0 ± 3.9% |
| COc1ccccc1-c1nnc(SCC(=O)Nc2ncc3c(n2)CC(C)(C)CC3=O)[nH]1 [Compound 16] | 3.45 ± 0.5 nM | 139.6 ± 1.5% | 99.0% | – |

Now from value to compound, other results behind:

| EC50 [2] | Emax (% vs basal) ([2]; mean ± SEM) | % Emax (ratio vs Emax of the standard) [2, 6] | Compound | other results |
| --- | --- | --- | --- | --- |
| 0.43 ± 0.08 nM | 160.0 ± 10.6% | – | Cn1c(SCC(=O)Nc2ccc(Cl)cc2)nnc1-c1ccc(NC(=O)c2ccccc2)cc1 [Compound 4] | % Emax (ratio vs Emax of the standard) [2, 5]: 110.8% |
| 0.52 ± 0.09 nM | 135.0 ± 10.2% | – | CCc1ccccc1-n1c(SCC(=O)Nc2ccccc2Cl)nnc1-c1ccccc1O [Compound 6] | % Emax (ratio vs Emax of the standard) [2, 5]: 93.5 ^* % |
| 0.48 ± 0.09 nM | 151.3 ± 6.7% | – | Cc1cccc(-c2n[nH]c(SCC(=O)Nc3cccc4ccccc34)n2)c1 [Compound 7] | % Emax (ratio vs Emax of the standard) [2, 5]: 104.8% |
| 0.24 ± 0.02 nM | 144.8 ± 6.4% | – | Cc1nc2ccc(NC(=O)CSc3nnc(-c4ccccc4)[nH]3)cc2[nH]1 [Compound 8] | % Emax (ratio vs Emax of the standard) [2, 5]: 100.3% |
| 2.9 ± 0.1 nM | 137.1 ± 1.3% | 97.23% | COc1ccccc1-c1nnc(SCC(=O)Nc2ncc3c(n2)CCCC3=O)[nH]1 [Compound 15] | – |
| 2.7 ± 0.4 nM | 139.3 ± 2.5% | 98.8% | COc1ccc(-c2nnc(SCC(=O)Nc3ncc(Cc4ccc(Cl)cc4)s3)n2-c2ccccc2)cc1OC [Compound 14] | – |
| 0.24 ± 0.06 nM | 142.0 ± 5.8% | – | Cc1cccc(-c2n[nH]c(SCC(=O)Nc3ccccc3)n2)c1 [Compound 10] | % Emax (ratio vs Emax of the standard) [2, 5]: 98.3% |
